Measured values as given in the supplement of paper PMC10307832.

How the values were obtained:
Assay in all cases: relative viability (nuclei count vs DMSO), 5 days (fraction); higher = more cells survive
AT9283 + Alpelisib = compound: O=C(Nc1c[nH]nc1-c1nc2ccc(CN3CCOCC3)cc2[nH]1)NC1CC1 [AT9283] + Cc1nc(NC(=O)N2CCC[C@H]2C(N)=O)sc1-c1ccnc(C(C)(C)C(F)(F)F)c1 [Alpelisib] (partner 2 µM)
In short: (§1)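 Lung cancer cell lines were pin-tool dosed in 1536-well plates on the day after seeding, with either a lone drug or a fixed anchor-drug dose plus five library-drug doses (not always all listed) in √10 steps. Nuclei were counted on 4× images after 5 days. Relative viability is the ratio of treated-well to vehicle-well nuclei counts, with each value a median of duplicate plates.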

Erlotinib + Phenformin = compound: C#Cc1cccc(Nc2ncnc3cc(OCCOC)c(OCCOC)cc23)c1 [Erlotinib] + N=C(N)NC(=N)NCCc1ccccc1 [Phenformin] (partner 250 µM)
In short: as §1

Erlotinib + Trametinib = compound: C#Cc1cccc(Nc2ncnc3cc(OCCOC)c(OCCOC)cc23)c1 [Erlotinib] + CC(=O)Nc1cccc(-n2c(=O)n(C3CC3)c(=O)c3c(Nc4ccc(I)cc4F)n(C)c(=O)c(C)c32)c1 [Trametinib] (partner 0.02 µM)
In short: as §1

Cell Line | relative viability (AT9283 + Alpelisib; first compound 0.003 µM) | relative viability (AT9283 + Alpelisib; first compound 0.03 µM) | relative viability (AT9283 + Alpelisib; first compound 0.09487 µM) | relative viability (AT9283 + Alpelisib; first compound 0.3 µM) | relative viability (Erlotinib + Phenformin; first compound 0.02 µM) | relative viability (Erlotinib + Phenformin; first compound 0.2 µM) | relative viability (Erlotinib + Phenformin; first compound 0.6325 µM) | relative viability (Erlotinib + Phenformin; first compound 2 µM) | relative viability (Erlotinib + Trametinib; first compound 0.02 µM) | relative viability (Erlotinib + Trametinib; first compound 0.2 µM) | relative viability (Erlotinib + Trametinib; first compound 0.6325 µM) | relative viability (Erlotinib + Trametinib; first compound 2 µM)
NCI-H1651 | 1.01 | 0.921 | 0.689 | 0.399 | 0.336 | 0.316 | 0.288 | 0.259 | 0.881 | 0.814 | 0.877 | 0.84
EBC-1 | 0.961 | 0.291 | 0.176 | 0.177 | – | – | – | – | – | – | – | –
NCI-H2342 | – | – | – | – | 0.532 | 0.671 | 0.572 | 0.433 | 1.14 | 0.814 | 0.803 | 0.74
NCI-H1993 | 0.789 | 0.612 | 0.552 | 0.515 | 0.564 | 0.59 | 0.573 | 0.549 | 0.597 | 0.491 | 0.497 | 0.465
HCC-827 | 0.96 | 0.856 | 0.349 | 0.212 | 0.232 | 0.144 | 0.139 | 0.133 | 0.205 | 0.159 | 0.148 | 0.169
NCI-H1299 | 1.08 | 1.04 | 0.476 | 0.352 | – | – | – | – | – | – | – | –
SK-LU-1 | 1.2 | 0.426 | 0.304 | 0.254 | 0.621 | 0.536 | 0.573 | 0.479 | 0.495 | – | 0.566 | 0.434
NCI-H1793 | 0.642 | 0.871 | 0.363 | 0.254 | 0.344 | 0.335 | 0.287 | 0.243 | 0.472 | 0.411 | 0.411 | 0.334
NCI-H1944 | 0.792 | 0.621 | 0.255 | 0.275 | 0.199 | 0.194 | 0.198 | 0.172 | 0.385 | 0.326 | 0.361 | 0.295
BEN | 0.969 | 0.987 | 0.23 | 0.245 | 0.276 | 0.248 | 0.273 | 0.269 | 1.01 | 0.883 | 1.24 | 1.16
ABC-1 | 0.957 | 0.238 | 0.269 | 0.355 | 0.248 | 0.248 | 0.217 | 0.233 | – | – | – | –
H3255 | 0.652 | 0.68 | 0.443 | 0.178 | 0.374 | 0.226 | 0.246 | 0.243 | 0.632 | 0.412 | 0.326 | 0.214
NCI-H1437 | 0.997 | 0.88 | 0.571 | 0.155 | 0.352 | 0.301 | 0.286 | 0.286 | 0.534 | 0.322 | 0.373 | 0.371
HCC-44 | 0.784 | 0.795 | 0.2 | 0.116 | 0.239 | 0.162 | 0.22 | 0.165 | 1.07 | 1.01 | 1.1 | 0.981
CAL-12T | 1.27 | 0.956 | 0.362 | 0.296 | 0.543 | 0.396 | 0.339 | 0.262 | 0.334 | 0.279 | 0.31 | 0.173
NCI-H1648 | – | – | – | – | – | – | – | – | 0.5 | 0.313 | 0.348 | 0.289
